Test results as given in ChEMBL document CHEMBL5053493, “Design and synthesis of novel orally selective and type II pan-TRK inhibitors to overcome mutations by property-driven optimization” (Eur J Med Chem, 2021).

Tests used:
KM12 = assay: Antiproliferative activity against human KM12 cells assessed as reduction in cell viability measured after 72 hrs by MTS assay
Aurora kinase A = molecular target: T1, Aurora kinase A (Homo sapiens, UniProt O14965); assay: biochemical
T1 sequence (O14965 whole entry): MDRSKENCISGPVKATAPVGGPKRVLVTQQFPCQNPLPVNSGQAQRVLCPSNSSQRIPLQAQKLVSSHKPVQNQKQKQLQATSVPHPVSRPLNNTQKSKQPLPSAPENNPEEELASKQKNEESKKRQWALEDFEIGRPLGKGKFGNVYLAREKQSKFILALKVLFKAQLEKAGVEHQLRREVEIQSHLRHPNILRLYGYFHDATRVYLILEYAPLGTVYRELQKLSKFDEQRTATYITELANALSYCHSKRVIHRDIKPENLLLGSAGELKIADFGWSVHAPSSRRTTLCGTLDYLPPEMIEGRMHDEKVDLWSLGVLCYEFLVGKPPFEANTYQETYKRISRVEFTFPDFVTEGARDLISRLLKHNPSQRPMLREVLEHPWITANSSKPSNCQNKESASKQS
Description: Inhibition of GST-tagged AURA Ser123 to 401 residues) (unknown origin) expressed in Sf9 insect cells using tetra-LLRASLG peptide as substrate incubated for 90 mins in presence of ATP

[1] = Inhibition of TRKA F589L mutant (unknown origin) in presence of [gamma-33P]ATP by hotspot kinase assay; design: species or system Homo sapiens
[2] = Inhibition of TRKC G623R mutant (unknown origin) in presence of [gamma-33P]ATP by hotspot kinase assay; design: species or system Homo sapiens
[3] = Inhibition of TRKC G696A mutant (unknown origin) in presence of [gamma-33P]ATP by hotspot kinase assay; design: species or system Homo sapiens
[4] = Inhibition of TRKC L686M mutant (unknown origin) in presence of [gamma-33P]ATP by hotspot kinase assay; design: species or system Homo sapiens
[5] = Inhibition of TRKA G595R/A608D double mutant (unknown origin) bin presence of [gamma-33P]ATP by hotspot kinase assay; design: species or system Homo sapiens
[6] = Inhibition of TRKA […]/G667C double mutant (unknown origin) in presence of [gamma-33P]ATP by hotspot kinase assay; design: species or system Homo sapiens
[7] = Inhibition of TRKA G595R/L657M double mutant(unknown origin) in presence of [gamma-33P]ATP by hotspot kinase assay; design: species or system Homo sapiens
[8] = Inhibition of TRKA L657M mutant (unknown origin) in presence of [gamma-33P]ATP by hotspot kinase assay; design: species or system Homo sapiens
[9] = molecular target: T2, High affinity nerve growth factor receptor (Homo sapiens, UniProt P04629)
T2 sequence (P04629 whole entry): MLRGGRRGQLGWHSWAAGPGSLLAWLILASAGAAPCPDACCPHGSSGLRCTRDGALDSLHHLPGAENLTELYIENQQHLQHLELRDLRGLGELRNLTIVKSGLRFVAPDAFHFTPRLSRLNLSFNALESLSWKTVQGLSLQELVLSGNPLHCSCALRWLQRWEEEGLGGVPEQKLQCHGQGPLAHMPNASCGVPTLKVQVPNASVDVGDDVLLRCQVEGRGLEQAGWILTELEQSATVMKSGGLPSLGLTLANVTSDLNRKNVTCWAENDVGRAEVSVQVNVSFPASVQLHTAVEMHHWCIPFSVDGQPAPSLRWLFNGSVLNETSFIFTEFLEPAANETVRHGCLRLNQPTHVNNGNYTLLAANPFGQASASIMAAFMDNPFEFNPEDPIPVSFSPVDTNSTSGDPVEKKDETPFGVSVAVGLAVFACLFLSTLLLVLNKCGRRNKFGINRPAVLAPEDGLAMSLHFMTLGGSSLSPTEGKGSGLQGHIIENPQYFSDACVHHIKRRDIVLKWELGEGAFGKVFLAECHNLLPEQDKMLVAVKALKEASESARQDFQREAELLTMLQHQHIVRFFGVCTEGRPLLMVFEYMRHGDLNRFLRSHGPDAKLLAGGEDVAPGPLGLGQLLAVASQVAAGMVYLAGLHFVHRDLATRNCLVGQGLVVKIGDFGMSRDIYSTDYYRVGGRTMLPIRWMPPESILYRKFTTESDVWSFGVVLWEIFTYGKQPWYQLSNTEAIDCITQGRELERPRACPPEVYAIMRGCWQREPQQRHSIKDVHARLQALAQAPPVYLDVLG

[10] = molecular target: BDNF/NT-3 growth factors receptor (Homo sapiens, UniProt Q16620); assay: Inhibition of TRKB (unknown origin)
Chain of BDNF/NT-3 growth factors receptor (Q16620 whole entry): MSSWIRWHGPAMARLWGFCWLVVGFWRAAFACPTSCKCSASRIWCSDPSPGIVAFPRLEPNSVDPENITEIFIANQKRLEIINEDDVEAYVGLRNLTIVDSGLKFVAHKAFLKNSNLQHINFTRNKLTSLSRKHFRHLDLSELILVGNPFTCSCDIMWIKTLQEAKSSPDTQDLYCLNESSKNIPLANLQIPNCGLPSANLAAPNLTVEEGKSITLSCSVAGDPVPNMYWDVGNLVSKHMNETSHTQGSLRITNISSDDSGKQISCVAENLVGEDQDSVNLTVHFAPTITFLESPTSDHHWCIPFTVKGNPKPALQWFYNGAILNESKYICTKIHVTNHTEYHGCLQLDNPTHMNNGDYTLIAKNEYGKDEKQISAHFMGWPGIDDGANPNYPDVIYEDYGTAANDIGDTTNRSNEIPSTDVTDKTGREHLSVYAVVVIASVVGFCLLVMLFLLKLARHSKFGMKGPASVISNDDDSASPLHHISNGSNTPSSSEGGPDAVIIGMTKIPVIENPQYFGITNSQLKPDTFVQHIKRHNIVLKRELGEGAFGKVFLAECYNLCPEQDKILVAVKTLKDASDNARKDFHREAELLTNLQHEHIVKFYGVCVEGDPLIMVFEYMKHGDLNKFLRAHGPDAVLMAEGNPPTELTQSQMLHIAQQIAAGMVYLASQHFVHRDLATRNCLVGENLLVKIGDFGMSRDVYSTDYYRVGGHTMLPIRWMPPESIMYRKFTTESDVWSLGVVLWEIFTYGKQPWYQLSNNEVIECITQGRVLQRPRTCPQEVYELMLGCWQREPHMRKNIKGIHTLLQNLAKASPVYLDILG

[11] = molecular target: NT-3 growth factor receptor (Homo sapiens, UniProt Q16288); assay: Inhibition of TRKC (unknown origin)
Chain of NT-3 growth factor receptor (Q16288 whole entry): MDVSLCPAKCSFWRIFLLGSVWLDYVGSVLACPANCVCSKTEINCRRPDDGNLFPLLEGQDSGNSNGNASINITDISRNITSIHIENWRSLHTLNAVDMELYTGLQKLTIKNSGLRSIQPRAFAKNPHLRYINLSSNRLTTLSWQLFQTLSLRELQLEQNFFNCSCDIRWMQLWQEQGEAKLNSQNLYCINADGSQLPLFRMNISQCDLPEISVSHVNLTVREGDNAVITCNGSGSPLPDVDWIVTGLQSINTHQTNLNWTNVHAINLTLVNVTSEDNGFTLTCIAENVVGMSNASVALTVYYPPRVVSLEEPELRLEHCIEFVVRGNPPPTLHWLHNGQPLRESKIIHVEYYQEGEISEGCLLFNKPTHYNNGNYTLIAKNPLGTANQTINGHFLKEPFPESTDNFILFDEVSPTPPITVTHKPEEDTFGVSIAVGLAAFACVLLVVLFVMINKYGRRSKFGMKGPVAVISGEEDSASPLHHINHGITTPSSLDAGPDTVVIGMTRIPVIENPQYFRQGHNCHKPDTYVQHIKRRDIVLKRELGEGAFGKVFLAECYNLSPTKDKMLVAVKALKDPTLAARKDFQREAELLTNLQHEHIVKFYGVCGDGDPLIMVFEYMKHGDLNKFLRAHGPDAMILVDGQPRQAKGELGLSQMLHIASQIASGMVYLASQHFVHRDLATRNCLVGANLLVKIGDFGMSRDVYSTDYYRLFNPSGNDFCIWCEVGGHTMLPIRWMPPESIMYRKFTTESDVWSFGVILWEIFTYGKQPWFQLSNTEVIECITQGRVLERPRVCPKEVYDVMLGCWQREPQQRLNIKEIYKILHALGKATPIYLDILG

[12] = molecular target: T2, High affinity nerve growth factor receptor; remark: listed apart in the source
Description: Inhibition of wildtype human TRKA using poly (Glu,Tyr) 4:1 as substrate in presence of [gamma-33P]ATP by hotspot kinase assay

Aurora kinase B = Aurora kinase B (Homo sapiens, UniProt Q96GD4); assay: Inhibition of recombinant full length His-tagged human AURB expressed in baculovirus expression system using tetra-LLRASLG peptide as substrate incubated for 180 mins in presence of ATP; design: species or system Sf9
Chain of Aurora kinase B (Q96GD4 whole entry): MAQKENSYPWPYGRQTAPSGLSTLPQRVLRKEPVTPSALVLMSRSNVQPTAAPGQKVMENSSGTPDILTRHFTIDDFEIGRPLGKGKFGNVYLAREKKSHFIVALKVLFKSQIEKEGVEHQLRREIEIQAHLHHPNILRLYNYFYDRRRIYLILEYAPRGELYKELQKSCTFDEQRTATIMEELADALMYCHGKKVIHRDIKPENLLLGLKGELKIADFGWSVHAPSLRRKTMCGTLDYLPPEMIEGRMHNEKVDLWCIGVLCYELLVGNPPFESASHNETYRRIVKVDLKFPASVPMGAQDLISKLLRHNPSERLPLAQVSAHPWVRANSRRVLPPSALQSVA

## CCOc1cc2ncnc(NCc3ccc(NC(=O)Nc4cccc(Cl)c4)cc3)c2cc1F
KM12; Homo sapiens, KM12, 72 h
  IC50: 1270 nM
Aurora kinase A
  IC50: 2 nM

## O=C(Nc1cnn2ccc(N3CCC[C@H]3c3cc(F)ccc3F)nc12)N1CC[C@@H](O)C1
[1]
  IC50: 52.1 nM
[2]
  IC50: 209 nM
[3]
  IC50: 3.28 nM
[4]
  IC50: 150 nM
[5]
  IC50: 80.2 nM
[6]
  IC50: > 10000 nM
[7]
  IC50: 2510 nM
[8]
  IC50: 20.7 nM

## CCOc1cc2ncnc(NCCc3ccc(NC(=O)Nc4ccc(F)c(Cl)c4)cc3)c2cc1F
Aurora kinase A
  IC50: 44 nM

## CCOc1cc2ncnc(NCCc3ccc(NC(=O)Nc4cccc(Cl)c4)cc3)c2cc1F
Aurora kinase A
  IC50: 26.9 nM

## COc1cc2ncnc(NCCc3ccc(NC(=O)Nc4ccccc4)cc3)c2cc1OC
Aurora kinase A
  IC50: 23 nM

## CN(C)CCCOc1ccc2c(NCCc3cnc(NC(=O)Nc4cccc(Cl)c4)s3)ncnc2c1
KM12; Homo sapiens, KM12, 72 h
  IC50: > 10000 nM
[9]
  IC50: 36.8 nM
[10]
  IC50: 1.78 nM
[11]
  IC50: 0.21 nM
Aurora kinase A
  IC50: 5.6 nM

## O=C(Nc1ccccc1)Nc1ccc(CCNc2ncnc3cc(F)c(F)cc23)cc1
KM12; Homo sapiens, KM12, 72 h
  IC50: 1520 nM

## CCOc1cc2ncnc(NCCc3ccc(NC(=O)Nc4ccc(Cl)c(C(F)(F)F)c4)cc3)c2cc1F
Aurora kinase A
  IC50: 349 nM

## CCOc1cc2ncnc(NCCc3ccc(NC(=O)Nc4cccc(F)c4)cc3)c2cc1F
Aurora kinase A
  IC50: 6 nM

## CCOc1cc2ncnc(NCCc3ccc(NC(=O)Nc4cccc(C(F)(F)F)c4)cc3)c2cc1F
Aurora kinase A
  IC50: 63.2 nM

## CCOc1cc2ncnc(NCc3ccc(NC(=O)Nc4ccccc4)cc3)c2cc1F
KM12; Homo sapiens, KM12, 72 h
  IC50: 2400 nM
Aurora kinase A
  IC50: 8 nM

## CCOc1cc2ncnc(Nc3ccc(NC(=O)Nc4ccccc4)cc3)c2cc1F
KM12; Homo sapiens, KM12, 72 h
  IC50: 2020 nM
Aurora kinase A
  IC50: 338 nM

## CCOc1cc2c(NCCc3ccc(NC(=O)Nc4ccccc4)cc3)ncnc2cc1F
KM12; km12
  IC50: 324 nM
Aurora kinase A
  IC50: 65.6 nM

## COc1cc2c(Oc3ccc(NC(=O)C4(C(=O)Nc5ccc(F)cc5)CC4)cc3F)ccnc2cc1OCCCN1CCOCC1 [FORETINIB]
[12]
  IC50: 2.97 nM

## COc1cc2nccc(Oc3ccc(NC(=O)C4(C(=O)Nc5ccc(F)cc5)CC4)cc3)c2cc1OC [CABOZANTINIB]
[12]
  IC50: 72.3 nM

## CCOc1cc2ncnc(NCCc3ccc(NC(=O)Nc4ccccc4)cc3)c2cc1F
KM12; km12
  IC50: 324 nM
[9]
  IC50: > 9000 nM
Aurora kinase A
  IC50: 29.2 nM

## CCOc1cc2ncnc(NCCc3ccc(NC(=O)Nc4cc(C(F)(F)F)ccc4OC)cc3)c2cc1F
Aurora kinase B
  IC50: 548 nM
Aurora kinase A
  IC50: 454 nM

## O=C(Nc1ccccc1)Nc1ccc(CCNc2ncnc3ccccc23)cc1
Aurora kinase A
  IC50: 140 nM

## CCOc1cc2c(NCCc3ccc(NC(=O)Nc4cccc(Cl)c4)cc3)ncnc2cc1F
Aurora kinase A
  IC50: 108 nM

## CCOc1cc2ncnc(NCCc3ccc(NC(=O)Nc4cc(Cl)ccc4OC)cc3)c2cc1F
Aurora kinase B
  IC50: 512 nM
Aurora kinase A
  IC50: 352 nM

## CCOc1cc2ncnc(Nc3ccc(NC(=O)Nc4cccc(Cl)c4)cc3)c2cc1F
Aurora kinase A
  IC50: 156 nM
